System: asthma patients
Test: Bronchodilator response (spirometry, FEV1) of asthma patients to inhaled albuterol, by β2AR haplotype pair
Format: in vivo, human
Method: The patients in the asthma cohort were enrolled from an outpatient facility as described in detail elsewhere (Yan, L., Galinsky, R. E., Bernstein, J. A., Liggett, S. B. & Weinshilboum, R. M. (1999) Pharmacogenetics in Press). […] Forced expiratory volume in 1 second (FEV1) and forced vital capacity (FVC) were determined in triplicate. The predicted values for these measurements were calculated based on standard algorithms (Morris, J. F., Koski, A. & Johnson, L. C. (1971) Am Rev Respir Dis 103, 57-67).
The association between changes in % predicted FEV1 and haplotype pair was assessed by fitting an analysis of covariance model (ANCOVA) with terms for haplotype pair, sex and baseline severity. P-values from pairwise comparisons by haplotype pair were adjusted for multiple comparisons by applying the Holm-Sidak step-down procedure (Ludbrook, J. (1998) Clin and Exp Pharmacology & Physiology 25, 1032-1037.). […] In addition, the African-American asthma patients were excluded from the analysis due to the low number of individuals in this population group. For the analysis of individual SNPs, a similar ANCOVA model was employed with a discrete term for SNP genotype, and terms for sex and baseline severity. The Holm-Sidak step-down procedure was used to adjust the p-values from the individual SNP analyses for the number of tests performed.
Pairwise tests were made while correcting for multiple comparisons. […] For this analysis, a similar ANCOVA model as above was utilized. […] Since 0, 1 or 2 copies of these two haplotypes are present in our population as haplotype pairs 2/2, 2/4 and 4/4, a potential gene dose effect can be assessed by regression analysis.

**Q.** CC(C)(C)NCC(O)c1ccc(O)c(CO)c1 (stereo not drawn) [albuterol] was tested. Which “bronchodilator response to albuterol” value (asthmatic patients with haplotype pair 2/6) did it give?
**A.** Its value is “moderate bronchodilator response”.

**Q.** What about the “bronchodilator response to albuterol” value (asthmatic patients with haplotype pairs 2/2 and 4/6) of the same compound?
**A.** Its value is “respond well”.

**Q.** And the “bronchodilator response to albuterol” value (asthmatic patients with haplotype pairs 2/4 and 4/4)?
**A.** Its value is “little to no response”.
